Reference: EP0068408A1 (priority 1981, dated 1983)
≈ marks a conversion by molar mass, not a printed value. Where two headings read alike, the source gives them in different places.

How the values were obtained:
[1] = system: Rhino; assay: microbe, parasite or virus in culture; type: cell-based
[2] = Acute toxicity in mice (LD50); type: in vivo; conditions: ddY male mice, suspended in 5% Arabic gum solution, observed for 7 days; for LD50 at 168 h: mouse, in vivo
Description: Experimental Example 7: Acute Toxicity in Mice
Each compound of the invention was suspended in 5% Arabic gum solution and given orally (p.o.) or intraperitoneally (i.p.) to groups of ten ddY male mice weighed from 24 to 26 g at the dosage volume of 10 ml/kg. […] LD50 was determined according to the method of Wilcoxon and Litchfield.

[3] = system: Coxsackie Type B5; assay: microbe, parasite or virus in culture; type: cell-based; conditions: virus G = Coxsackie Type B5
[4] = system: ECHO; assay: microbe, parasite or virus in culture; type: cell-based
[5] = system: Influenza B; assay: microbe, parasite or virus in culture; type: cell-based
[6] = system: Influenza A0; assay: microbe, parasite or virus in culture; type: cell-based; conditions: virus A = Influenza A0, MDCK, Vero and HEL cells, 2 or 3 days
[7] = system: Parainfluenza Type 3; assay: microbe, parasite or virus in culture; type: cell-based; conditions: virus E = Parainfluenza Type 3
[8] = system: influenza A0 virus; assay: animal or person; type: in vivo, mice; conditions: for protective action against death due to the infection: result in words, Tables 3 and 4
[9] = system: Influenza A1; assay: microbe, parasite or virus in culture; type: cell-based
[10] = system: influenza virus A/WSN; assay: animal or person; type: in vivo, mice; conditions: in Mus musculus, 360 h, read-out: Survival rate
[11] = ip, i.p., read-out: LD50 value, Intraperitoneal administration
[12] = po, p.o., read-out: LD50 value, Oral administration
[13] = Mus musculus, 360 h, oral, twice a day for 14 days, survivors at 15th day, read-out: Survival rate
[14] = Mus musculus, ip, 360 h, intraperitoneal, twice a day for 14 days, survivors at 15th day, read-out: Survival rate

Row | SMILES | MIC [1] | LD50 at 168 h [2, 11] | LD50 at 168 h [2, 12] | MIC [3] | MIC [4] | MIC [5] | MIC [6] | MIC [7] | responders at 300 mg/kg [8, 13] | responders at 100 mg/kg [8, 14] | MIC [9] | LD50 value, Oral administration ([2]; p.o.) | LD50 value, Intraperitoneal administration ([2]; i.p.) | also measured
1 | O=C(O)c1ccc(Cl)c(S(=O)(=O)NCCO)c1 [Compound 5] | 300 µg/mL (≈ 1070 µM) | > 1000 mg/kg | > 3000 mg/kg | 300 µg/mL (≈ 1070 µM) | 300 µg/mL (≈ 1070 µM) | 300 µg/mL (≈ 1070 µM) | 30 µg/mL (≈ 107 µM) | 100 µg/mL (≈ 358 µM) | 50% | 40% | 300 µg/mL (≈ 1070 µM) | – | – | –
2 | O=C(O)c1ccc(Cl)c(S(=O)(=O)NNc2ccc(Cl)nn2)c1 [Compound 10] | 300 µg/mL (≈ 826 µM) | > 1000 mg/kg | > 3000 mg/kg | 300 µg/mL (≈ 826 µM) | 100 µg/mL (≈ 275 µM) | 300 µg/mL (≈ 826 µM) | 30 µg/mL (≈ 82.6 µM) | 300 µg/mL (≈ 826 µM) | 40% | 40% | 300 µg/mL (≈ 826 µM) | – | – | –
3 | O=C(O)c1ccc(Cl)c(S(=O)(=O)Nc2ccccc2)c1 [Compound 9] | – | – | – | – | – | – | – | – | – | – | – | >3,000 mg/kg | – | –
4 | NS(=O)(=O)c1cc(C(=O)OCc2ccccc2)c(Cl)cc1Cl [Compound 39] | – | > 1000 mg/kg | > 3000 mg/kg | – | – | – | – | – | – | – | – | – | – | responders at 100 mg/kg ([10]; po): 30%; responders at 300 mg/kg ([10]; po): 40%
5 | CCC(C)OC(=O)c1cc(S(N)(=O)=O)c(Cl)cc1Cl (stereo not drawn) [Compound 36] | – | > 1000 mg/kg | > 3000 mg/kg | – | – | – | – | – | – | – | – | – | – | responders at 30 mg/kg ([10]; ip): 30%; responders at 100 mg/kg ([10]; ip): 40%
6 | O=C(O)c1ccc(Cl)c(S(=O)(=O)N2CCOCC2)c1 [Compound 11] | – | – | – | – | – | – | – | – | – | – | – | >3,000 mg/kg | >1,000 mg/kg | –
7 | NS(=O)(=O)c1ccc(Cl)cc1C(=O)O [Compound 27] | 100 µg/mL (≈ 424 µM) | > 1000 mg/kg | > 3000 mg/kg | 300 µg/mL (≈ 1270 µM) | 300 µg/mL (≈ 1270 µM) | 100 µg/mL (≈ 424 µM) | 30 µg/mL (≈ 127 µM) | 300 µg/mL (≈ 1270 µM) | 40% | 40% | 300 µg/mL (≈ 1270 µM) | – | – | –
8 | NS(=O)(=O)c1cc(C(=O)O)c(Br)cc1Cl [Compound 18] | 300 µg/mL (≈ 954 µM) | > 1000 mg/kg | > 3000 mg/kg | 30 µg/mL (≈ 95.4 µM) | 3 µg/mL (≈ 9.54 µM) | 300 µg/mL (≈ 954 µM) | 30 µg/mL (≈ 95.4 µM) | 300 µg/mL (≈ 954 µM) | 70% | 70% | 300 µg/mL (≈ 954 µM) | – | – | responders at 100 mg/kg [8, 13]: 50%; responders at 30 mg/kg [8, 14]: 50%; protective action against death due to the infection [8]: extremely excellent activity
9 | CCOC(=O)c1cc(S(N)(=O)=O)c(F)cc1Cl [Compound 42] | – | > 1000 mg/kg | > 3000 mg/kg | – | – | – | – | – | – | – | – | – | – | responders at 100 mg/kg ([10]; po): 40%; responders at 300 mg/kg ([10]; po): 50%
10 | NS(=O)(=O)c1cc(C(=O)O)cc(Cl)c1Cl [Compound 20] | 30 µg/mL (≈ 111 µM) | > 1000 mg/kg | > 3000 mg/kg | 300 µg/mL (≈ 1110 µM) | 100 µg/mL (≈ 370 µM) | 100 µg/mL (≈ 370 µM) | 10 µg/mL (≈ 37 µM) | 30 µg/mL (≈ 111 µM) | 80% | 70% | 100 µg/mL (≈ 370 µM) | – | – | responders at 30 mg/kg [8, 13]: 40%; responders at 100 mg/kg [8, 13]: 60%; responders at 10 mg/kg ([8]; Mus musculus, ip, 360 h, intraperitoneal, 10 mg/kg, twice a day for 14 days, survivors at 15th day, read-out: Survival rate): 40%; responders at 30 mg/kg [8, 14]: 60%; protective action against death due to the infection [8]: extremely excellent activity
11 | NC(=O)C(=O)NNS(=O)(=O)c1cc(C(=O)O)c(Cl)cc1Cl [Compound 24] | 100 µg/mL (≈ 281 µM) | > 1000 mg/kg | > 3000 mg/kg | 300 µg/mL (≈ 842 µM) | 300 µg/mL (≈ 842 µM) | 300 µg/mL (≈ 842 µM) | 100 µg/mL (≈ 281 µM) | 300 µg/mL (≈ 842 µM) | 50% | 40% | 300 µg/mL (≈ 842 µM) | – | – | –
12 | COC(=O)c1ccc(F)c(S(N)(=O)=O)c1 [Compound 28] | – | – | – | – | – | – | – | – | – | – | – | >3,000 mg/kg | >1,000 mg/kg | –
13 | NS(=O)(=O)c1cc(C(=O)O)c(Cl)cc1F [Compound 17] | 300 µg/mL (≈ 1180 µM) | > 1000 mg/kg | > 3000 mg/kg | 300 µg/mL (≈ 1180 µM) | 300 µg/mL (≈ 1180 µM) | 300 µg/mL (≈ 1180 µM) | 30 µg/mL (≈ 118 µM) | 300 µg/mL (≈ 1180 µM) | 40% | 40% | 300 µg/mL (≈ 1180 µM) | – | – | –
14 | CC(C)OC(=O)c1cc(S(N)(=O)=O)c(Cl)cc1Cl [Compound 34] | – | > 1000 mg/kg | > 3000 mg/kg | – | – | – | – | – | – | – | – | – | – | responders at 30 mg/kg ([10]; ip): 30%; responders at 100 mg/kg ([10]; ip): 40%
15 | CCOC(=O)c1cc(S(N)(=O)=O)c(Cl)cc1Cl [Compound 32] | – | > 1000 mg/kg | > 3000 mg/kg | – | – | – | – | – | – | – | – | – | – | responders at 100 mg/kg ([10]; po): 40%; responders at 300 mg/kg ([10]; po): 50%
16 | O=C(O)c1ccc(Cl)c(S(=O)(=O)N2CCCC2)c1 [Compound 12] | 300 µg/mL (≈ 1040 µM) | > 1000 mg/kg | > 3000 mg/kg | 100 µg/mL (≈ 345 µM) | 300 µg/mL (≈ 1040 µM) | 300 µg/mL (≈ 1040 µM) | 30 µg/mL (≈ 104 µM) | 300 µg/mL (≈ 1040 µM) | 40% | 40% | 300 µg/mL (≈ 1040 µM) | – | – | –
17 | NS(=O)(=O)c1cc(C(=O)O)c(Cl)cc1Cl [Compound 19] | – | – | – | – | – | – | – | – | – | – | – | >3,000 mg/kg | >1,000 mg/kg | protective action against death due to the infection [8]: extremely excellent activity
18 | CCNS(=O)(=O)c1cc(C(=O)O)ccc1Cl [Compound 2] | – | – | – | – | – | – | – | – | – | – | – | >3,000 mg/kg | >1,000 mg/kg | –
19 | N=C(N)NNS(=O)(=O)c1cc(C(=O)O)c(Cl)cc1Cl [Compound 22] | 300 µg/mL (≈ 917 µM) | > 1000 mg/kg | > 3000 mg/kg | 300 µg/mL (≈ 917 µM) | 100 µg/mL (≈ 306 µM) | 300 µg/mL (≈ 917 µM) | 100 µg/mL (≈ 306 µM) | 300 µg/mL (≈ 917 µM) | 40% | 40% | 300 µg/mL (≈ 917 µM) | – | – | –
20 | CC(C)NS(=O)(=O)c1cc(C(=O)O)ccc1Cl [Compound 8] | – | – | – | – | – | – | – | – | – | – | – | >3,000 mg/kg | >1,000 mg/kg | –
21 | CN(C)S(=O)(=O)c1cc(C(=O)O)ccc1Cl [Compound 3] | – | – | – | – | – | – | – | – | – | – | – | >3,000 mg/kg | >1,000 mg/kg | –
22 | NS(=O)(=O)c1cc(C(=O)OC2CCCCC2)c(Cl)cc1Cl [Compound 38] | – | > 1000 mg/kg | > 3000 mg/kg | – | – | – | – | – | – | – | – | – | – | responders at 30 mg/kg ([10]; ip): 30%; responders at 100 mg/kg ([10]; ip): 40%
23 | CNS(=O)(=O)c1cc(C(=O)O)ccc1Cl [Compound 1] | – | – | – | – | – | – | – | – | – | – | – | >3,000 mg/kg | >1,000 mg/kg | –
